Assays:
[1] = system: ROS production; assay: ROS production in vitro under direct LED illumination of other photosensitizers; settings: compared with Ce6
Text: The system can be adapted for use with other photosensitizers.

[2] = system: MB49 cells; assay: Cell viability (MTS assay) of Ce6-incubated MB49 cells after irradiation; format: cell-based, murine; settings: for cell kill (MTS assay): 20 min irradiation, 1.3 mW
Description: (§1) Using Ce6-incubated murine bladder cancer cells, ROS production was further validated against red laser irradiation, the current clinical standard, in two configurations: (i) cells directly exposed to the radio-frequency/laser source, and (ii) cells placed under thick (3 cm) porcine tissue, simulating light delivery to deep tissue regions.
(§2) FIGS. 18a to 18d illustrate test configurations for investigating ROS production. FIG. 18a illustrates a test configuration in which laser light is directly incident on the MB49 cells and FIG. 18 illustrates a test configuration in which the laser light travels through 3 cm of tissue. The laser illumination was carried out with the following intensity 37.5 mW/cm^2, 4 J/cm^2. FIG. 18c illustrates a test configuration in which a wirelessly powered implantable device is powered without intervening tissue. For this configuration near-field (NF) wireless powering was used. FIG. 18d illustrates a test configuration in which a wirelessly powered implantable device is powered without though 3 cm of tissue. For this configuration mid-field (MF) wireless powering was used.
Change in cell viability (MTS assay) following 20 min of irradiation in the above light delivery configurations is shown. The light dosing rate was 1.3 mW throughout. Groups include untreated cells, cells exposed to Ce6 alone, cells exposed to light alone and cells incubated with Ce6 and exposed to light from a laser or the device with or without intervening tissue section.

[3] = system: solid tumor from MB49 bladder cancer cells; assay: Histology after a single round of PDT, wireless device versus direct laser illumination; format: in vivo, mice
Description: We compared the therapy to PDT by direct laser illumination, the current clinical standard, by histological examination of the tissue following a single round of treatment. […] The white lines labelled “T.B.” indicates a tissue boundary. Tumor-bearing mice were injected intratumorally with Ce6 and administered either the prior light dose using the wireless device or using a red laser (660 nm) collimated to a 5-mm diameter spot.

[4] = system: C6 rat glioma cells; assay: Cell kill in C6 rat glioma by UV light triggered PDT; format: cell-based; settings: Ce6 PDT triggered by UV/violet light emitting devices, in vitro
[5] = system: ROS production; assay: ROS production by Ce6 illuminated with wireless LED mesh device (405 nm or 660 nm); settings: UV/violet (405 nm) light versus red (660 nm) light
Text: Depending on the absorption spectrum of the photosensitizer used and the size of the tumor, the devices can be customized to emit a suitable light wavelength. The photosensitizer Ce6 (chlorin e6) has a strong absorption peak at 405 nm and a weaker one at 660 nm.
FIG. 33A is a graph showing production of reactive oxygen species (ROS) by Ce6 when illuminated using a wireless illumination device emitting red (660 nm) light. FIG. 33B is a graph showing production of reactive oxygen species (ROS) by Ce6 when illuminated using a wireless illumination device emitting UV/violet (405 nm) light.

[6] = system: MB49 cells; assay: Apoptosis index (TUNEL assay) in MB49 cells; format: cell-based, murine
Description: as §2
Cell death could be attributed to apoptosis, a widely accepted mechanism for PDT-mediated cytotoxicity. Apoptosis index (TUNEL assay) including positive and negative controls from the assay are shown.

[7] = system: MB49 cells; assay: Cellular ROS production (Image-iT live Green ROS sensor fluorescence); format: cell-based, murine
Description: as §1, §2
FIGS. 21a to 21g show florescence images of treated cells and control cells. FIGS. 21a and 21b show cells treated following incubation with Ce6 and illuminated with respectively, the direct laser configuration and, the though tissue laser configuration. FIGS. 21c and 21d show cells treated following incubation with Ce6 and illuminated with respectively, the near field (direct) wireless configuration and, the though tissue (mid field) wireless configuration. FIGS. 21e to 21g show control scenarios. […] The results were obtained from a fluorogenic, cell-permeable ROS sensor (Image-iT live Green ROS).
In all cases, significant cell death resulted from oxidative stress.

[8] = system: ROS production; assay: ROS production in Ce6 solution around device implanted in adult pig model; settings: 5 μM Ce6 solution; device 5.1 cm deep on liver surface, wirelessly powered through tissue; vs control solution with no Ce6
Description: To illustrate that the implantable illumination devices could be powered through thick tissue at depths relevant to human scales, ROS production studies were conducted in an adult pig model.
FIGS. 16a to 16c show computed tomography (CT) reconstructions of the radio-frequency transmitter and device implanted an adult pig model.
The control (No Ce6) was a control solution with no Ce6 and the test solution was a solution containing 5 μM Ce6.

[9] = system: solid tumor from MB49 bladder cancer cells; assay: Cancer PDT in C57 BL/6 mice bearing MB49 tumors, wireless light delivery; format: in vivo
Description: Treatments were administered on Day 3 (T1) and Day 9 (T2) with a light dose of 1.3 mW over 30 min. Graphs show mean±s.d. (n=5 per group). The light dose was set to the same level (1.3 mW, 30 min) as used in the in vitro experiments. Devices were implanted in the interstitial space around a solid tumor grown to 4-6 mm diameter from MB49 bladder cancer cells subcutaneously injected into the hind region. After a recovery period, PDT was performed by intratumoral injection of Ce6 followed 4 hours later by wireless delivery of the light dose. […] Control groups were left untreated; received Ce6 injections only, received sham devices only, or given light doses using functional devices without Ce6 injection. […] Monitoring of tumor volume ended 13 days after first treatment, beyond which tumors in the majority of the mice from control groups either reached ethical size limits or were ulcerated. […] Tumor volumes cleared by PDT at the prescribed light dose are consistent with light transport calculations and measurements.

[10] = intratumoral Ce6 + red laser (660 nm), 5-mm spot
[11] = intratumoral Ce6 + wireless device light dose

## [Zn+2].c1ccc2c(c1)-c1nc-2nc2[n-]c(nc3nc([n-]c4nc(n1)-c1ccccc1-4)-c1ccccc1-3)c1ccccc21 [zinc phthalocyanine]
[1]
  levels of ROS in vitro (normalized fluorescence): comparable levels of ROS

## Chlorin e6 [Ce6]
[2]; Ce6 + laser illumination obstructed by thick (3 cm) tissue, P=0.178
  change in cell viability (MTS assay): did not result in a significant difference in cell viability
[2]; Ce6 + laser illumination, direct
  change in cell viability (MTS assay): effective at reducing cell viability
[2]; Ce6 + wireless light delivery through thick (3 cm) tissue (mid-field), P=0.0039
  cell kill (MTS assay): ~80%
[2]; Ce6 + wireless light delivery, direct (near-field), P=0.0027
  cell kill (MTS assay): ~80%
[3]; [10]
  apoptosis in explanted tumor tissues (TUNEL staining): comparable apoptosis
  damage in tissues adjacent to the tumor (TUNEL staining): did not show significant damage
[3]; [11]
  apoptosis in explanted tumor tissues (TUNEL staining): comparable apoptosis
  damage in tissues adjacent to the tumor (TUNEL staining): did not show significant damage
[4]
  cell death: about 80%
[5]
  ROS yield: ROS yield is higher
[6]; Ce6 + laser, direct
  apoptosis index (TUNEL assay): high apoptosis
[6]; Ce6 + laser, through 3 cm tissue
  apoptosis index (TUNEL assay): low and comparable to the untreated control scenario
[6]; Ce6 + wireless device, direct (near-field)
  apoptosis index (TUNEL assay): high apoptosis
[6]; Ce6 + wireless device, through 3 cm tissue (mid-field)
  apoptosis index (TUNEL assay): high apoptosis
[7]; Ce6 + laser illumination, beam obstructed with thick tissue
  ROS-induced fluorescence signal: insignificant ROS-induced fluorescence
[7]; Ce6 + laser illumination, direct irradiation
  ROS-induced fluorescence signal: effective only under direct irradiation
[7]; Ce6 + wireless illumination, close proximity to radio-frequency source
  ROS-induced fluorescence signal: increased signal
[7]; Ce6 + wireless illumination, through thick tissue
  ROS-induced fluorescence signal: increased signal
[7]; Ce6 exposure alone (no light)
  ROS production: did not result in significant ROS production
[8]
  ROS production in Ce6 solution: significant ROS production
[9]; across all groups of mice incl. Ce6 + wireless light
  body weight over the treatment period: did not show appreciable weight loss
[9]; intratumoral Ce6, wireless light dose 1.3 mW 30 min 4 hours later, two treatments, monitored to 13 days after first treatment, vs control groups
  tumor volume as a function of time: suppression, and in some cases complete regression, of tumors
[9]; treatment group (Ce6 + wireless light) compared to control groups
  apoptotic cells in resected tumors (TUNEL staining): significantly greater population of apoptotic cells

From US11896843B2, “Photodynamic therapy devices, systems and methods” (NATIONAL UNIVERSITY OF SINGAPORE, priority 2018, dated 2024)
